# Data reported in ChEMBL document CHEMBL5233258, “Recent developments of gallic acid derivatives and their hybrids in medicinal chemistry: A review” (Eur J Med Chem, 2020).
# Assays:
# Micrococcus luteus [1] = assay: Bactericidal activity against Micrococcus luteus ATCC 4698 assessed as inhibition of bacterial growth incubated for 48 hrs by broth macrodilution method; type: functional
# [2] = test system: Corynebacterium ammoniagenes; assay: Bactericidal activity against Brevibacterium ammoniagenes ATCC 6872 assessed as inhibition of bacterial growth incubated for 48 hrs by broth macrodilution method; type: functional
# [3] = test system: Corynebacterium ammoniagenes; assay: Antibacterial activity against Brevibacterium ammoniagenes ATCC 6872 assessed as inhibition of bacterial growth incubated for 48 hrs by broth macrodilution method; type: functional
# Bacillus subtilis [4] = assay: Bactericidal activity against Bacillus subtilis ATCC 9372 assessed as inhibition of bacterial growth incubated for 48 hrs by broth macrodilution method; type: functional
# Staphylococcus aureus [5] = assay: Antibacterial activity against Staphylococcus aureus ATCC 12598 assessed as inhibition of bacterial growth incubated for 48 hrs by broth macrodilution method; type: functional
# Micrococcus luteus [6] = assay: Antibacterial activity against Micrococcus luteus ATCC 4698 assessed as inhibition of bacterial growth incubated for 48 hrs by broth macrodilution method; type: functional
# Staphylococcus aureus [7] = assay: Bactericidal activity against Staphylococcus aureus ATCC 12598 assessed as inhibition of bacterial growth incubated for 48 hrs by broth macrodilution method; type: functional
# [8] = molecular target: T1, Seed linoleate 13S-lipoxygenase-1 (Glycine max, UniProt P08170); assay: Inhibition of soybean LOX-1
# T1 sequence (P08170 whole entry): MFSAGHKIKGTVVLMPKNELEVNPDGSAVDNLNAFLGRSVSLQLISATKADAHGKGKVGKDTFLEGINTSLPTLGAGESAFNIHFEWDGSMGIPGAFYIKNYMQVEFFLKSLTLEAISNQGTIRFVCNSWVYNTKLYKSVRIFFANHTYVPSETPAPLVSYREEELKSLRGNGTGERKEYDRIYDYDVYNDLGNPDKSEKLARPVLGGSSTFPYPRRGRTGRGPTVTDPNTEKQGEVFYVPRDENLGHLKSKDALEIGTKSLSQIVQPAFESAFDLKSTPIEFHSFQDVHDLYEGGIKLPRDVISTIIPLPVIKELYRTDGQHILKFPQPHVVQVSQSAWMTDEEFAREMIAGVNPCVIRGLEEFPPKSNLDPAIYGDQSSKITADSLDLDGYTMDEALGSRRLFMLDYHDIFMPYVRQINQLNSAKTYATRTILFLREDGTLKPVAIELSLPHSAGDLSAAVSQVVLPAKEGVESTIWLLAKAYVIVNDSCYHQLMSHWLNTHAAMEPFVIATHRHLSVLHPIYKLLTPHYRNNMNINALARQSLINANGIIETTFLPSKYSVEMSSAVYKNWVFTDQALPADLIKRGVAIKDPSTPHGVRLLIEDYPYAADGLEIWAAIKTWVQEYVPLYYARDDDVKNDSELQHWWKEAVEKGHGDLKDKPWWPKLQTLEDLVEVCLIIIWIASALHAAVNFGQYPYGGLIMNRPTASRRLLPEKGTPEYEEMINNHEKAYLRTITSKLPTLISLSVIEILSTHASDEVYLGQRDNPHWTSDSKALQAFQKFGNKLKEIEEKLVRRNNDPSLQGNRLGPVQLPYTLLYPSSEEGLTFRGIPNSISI
# Bacillus subtilis [9] = assay: Antibacterial activity against Bacillus subtilis ATCC 9372 assessed as inhibition of bacterial growth incubated for 48 hrs by broth macrodilution method; type: functional
# [10] = Antioxidant activity in ethanol; type: functional
smiles,measurement,setting,value
CCCCCCCCCCCCOC(=O)c1cc(O)c(O)c(O)c1 [DODECYL GALLATE],MBC,Micrococcus luteus [1],> 200 µg/mL
same,MBC,[2],> 200 µg/mL
same,MIC,[3],> 200 µg/mL
same,MBC,Bacillus subtilis [4],> 200 µg/mL
same,MIC,Staphylococcus aureus [5],> 200 µg/mL
same,MIC,Micrococcus luteus [6],> 200 µg/mL
same,MBC,Staphylococcus aureus [7],> 200 µg/mL
same,IC50,[8],1100 nM
same,MIC,Bacillus subtilis [9],> 200 µg/mL
CCCCCCCCOC(=O)c1cc(O)c(O)c(O)c1 [OCTYL_GALLATE],IC50,[10],19 ppm
